Test results as given in paper PMC9973354 (mBio, 2022).
“And” between values parts separate entries of the source, which are not always exact repeats. Equal values may be shown once. Read-outs that look alike come from different tables or passages of the source. Starred links: 1 amine or outer side, 2 acyl side, 3 side chain; linkers in the order of their positions; H or OH if unused. Positions of bridges follow the written chain, without caps; N, C: chain ends. Non-standard residues stand in square brackets, D forms with d. Residues, ends and D or L forms follow the SMILES beside them. ξ: configuration not given here. X1 = O=C([C@@H]1CCN=C2C(N[*:1])=Cc3cc(O)c(O)cc3N21)[*:2]; ξOrn(N(OH)CHO) = NC(CCCN(O)C=O)C(=O)O; Suc = O=C(CCC(=O)[*:2])[*:1]; ξK = NCCCCC(N)C(=O)O; ξS = NC(CO)C(=O)O

Legend:
[1] = test system: PA14; assay: Growth curves with DSX and siderophores, WT PA14; assay type: cell-based, Pseudomonas aeruginosa; settings: 20 h
Protocol: Supplementary file : FIG S1 (A) FpvB is expressed in WT PA14 and the ΔfpvA mutant grown in 10:90. PilF was used as a loading control for outer membrane proteins. (B) FpvA is expressed from WT PA14 grown in 10:90. […] PilF was used as a loading control for outer membrane proteins. (C) Growth curves of PA14 and mutants with DSX and different siderophores in 10:90. PA14, ΔfpvA, ΔfpvB, ΔfpvA ΔfpvB, and ΔpvdA ΔpchA strain growth. Blue indicates control, purple indicates treatment with 64 μg/mL DSX, yellow indicates treatment with 10 μg/mL pyoverdine (PA14), and red indicates treatment with 64 μg/mL DSX and 10 μg/mL pyoverdine (PA14). (D) ΔfpvA, ΔfpvA ΔfpvB, and ΔpvdA ΔpchA strain growth. Blue indicates control, purple indicates treatment with 64 μg/mL DSX, grey indicates treatment with 10 μg/mL ferrichrome, and red indicates treatment with 64 μg/mL DSX and 10 μg/mL ferrichrome. (E) ΔfpvA, ΔfpvA ΔfpvB, and ΔpvdA ΔpchA strain growth. […] Download FIG S1, EPS file, 8.5 MB.
Another explanation for the susceptibility of the ΔfpvA mutant to DSX is that the mutant produces less pyoverdine compared to WT cells due to loss of the signaling cascade that controls siderophore production in response to its binding to FpvA ([25]). To differentiate whether the fpvA mutant was susceptible to DSX because of reduced pyoverdine production or because FpvB was a poor pyoverdine transporter, we treated the WT, ΔfpvA, ΔfpvB, and ΔfpvA ΔfpvB strains with DSX (64 μg/mL) without and with exogenous pyoverdine (10 μg/mL) for 20 h (Fig. 1; see also Fig. S1C). Growth of the ΔfpvA mutant should be restored if there are functional pyoverdine transporters. […] The growth of the ΔfpvA ΔfpvB mutant was inhibited by DSX and pyoverdine, confirming previously published results ([18]).

[2] = target: T1, FpvB R648C (Pseudomonas aeruginosa, UniProt A0A0H2ZFZ5, R648C); assay: Whole-cell fluorescence quenching, FpvB R648C in quadruple mutant; assay type: binding; settings: FpvB R648C in quadruple mutant, two-site model
T1 sequence (A0A0H2ZFZ5 23-802 R648C): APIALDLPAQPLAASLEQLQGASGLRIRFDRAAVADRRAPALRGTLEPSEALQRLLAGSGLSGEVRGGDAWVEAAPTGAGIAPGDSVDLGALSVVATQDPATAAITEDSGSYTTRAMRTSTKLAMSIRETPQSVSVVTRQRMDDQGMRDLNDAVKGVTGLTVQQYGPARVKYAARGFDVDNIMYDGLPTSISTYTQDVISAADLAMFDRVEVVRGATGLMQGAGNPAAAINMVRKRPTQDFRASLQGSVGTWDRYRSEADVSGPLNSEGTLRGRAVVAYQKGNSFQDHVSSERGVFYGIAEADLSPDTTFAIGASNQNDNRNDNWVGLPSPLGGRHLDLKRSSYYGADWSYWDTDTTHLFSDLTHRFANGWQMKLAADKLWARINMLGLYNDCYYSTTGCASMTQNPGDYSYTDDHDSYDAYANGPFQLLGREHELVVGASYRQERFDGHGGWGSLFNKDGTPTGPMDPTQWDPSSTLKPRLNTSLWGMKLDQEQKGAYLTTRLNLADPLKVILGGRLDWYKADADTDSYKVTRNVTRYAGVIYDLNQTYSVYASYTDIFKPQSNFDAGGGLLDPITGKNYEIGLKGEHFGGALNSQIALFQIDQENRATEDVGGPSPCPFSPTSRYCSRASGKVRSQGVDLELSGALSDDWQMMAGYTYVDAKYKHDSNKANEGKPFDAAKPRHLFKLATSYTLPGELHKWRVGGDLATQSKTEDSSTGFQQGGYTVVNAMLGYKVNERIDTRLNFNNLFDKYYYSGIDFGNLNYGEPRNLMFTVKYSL
Protocol: Quenching assays with the two xenosiderophores were repeated for the quadruple TBDT mutant expressing WT FpvB, FpvB R191A R648C, or W347V R648C.
Cells were cultured overnight in LB with carbenicillin (200 μg/mL) at 37°C with shaking at 200 rpm. Cells were subcultured (1:200 dilution) in 10:90 plus 2% arabinose for 4 h without carbenicillin at 37°C with shaking at 200 rpm. Cells were harvested by centrifugation for 5 min and 6,000 × g and resuspended in sterile 1× phosphate-buffered saline (PBS) (pH 7.4); 1× PBS was made from a 10× stock (80 g NaCl, 2 g KCl, 26.8 g Na2 HPO4-7H2O, 2.4 g KH2PO4 in 1 L of deionized H2O) with 10 μM Alexa Fluor 594 C5 maleimide for microscopy or fluorescein-5-maleimide for fluorescence quenching and recovery assays and incubated in the dark at room temperature for 30 min on a shaking incubator at 37°C (200 rpm). Excess dye was quenched with 1 mM dithiothreitol (DTT) (Sigma) to stop the reaction. Cells were washed 3× with PBS. For fluorescence recovery assays, cells were incubated with 1× PBS plus 0.4% glucose at 37°C with shaking at 200 rpm. Glucose was prepared as a 20% stock (wt/vol) in 1× PBS and filter sterilized. Cells were spun down and washed 3× with 1× PBS and resuspended in 1× PBS for quenching assays and 1× PBS plus 0.4% glucose for fluorescence recovery assays.
For fluorescence quenching and recovery assays, cells were diluted to an OD600 of 0.1 for both types of assays, and 148 μL was added into wells of a 96-well black plate (Corning). Fluorescence was recorded for 5 min at 1-min intervals at 37°C (BioTek Neo; excitation, 494 nm; emission, 520 nm). After 5 min, 2 μL of each serial dilution for ferrioxamine-Fe^3+, ferrichrome-Fe^3+, and pyoverdine-Fe^3+ or DMSO for vehicle controls was added to each well. Fluorescence was recorded immediately for quenching assays and for 1 h at 1-min intervals for fluorescence recovery assays. Background fluorescence was subtracted from all fluorescence readings and 1-F/F0 was used to calculate the degree of quenching, where F0 is the initial fluorescence. Kd was calculated using GraphPad Prism using a one-site specific binding model or a two-site model. For fluorescence recovery assays, background was subtracted from all fluorescence readings and F/F0 expressed as a percent of control was plotted versus time.

SMILES	growth with siderophore in the presence of DSX ([1]; 64 μg/mL DSX + 10 μg/mL pyoverdine)	growth versus control ([1]; DSX 64 μg/mL or pyoverdine 10 μg/mL alone, 10:90)	Kd ([2]; read-out: Kd1 (converted))	Kd ([2]; read-out: Kd2 (converted))
NCCCCC(NC(=O)C(CO)NC(=O)[C@@H]1CCN=C2C(NC(=O)CCC(=O)O)=Cc3cc(O)c(O)cc3N21)C(=O)NCC(=O)NC(CCCN(O)C=O)C(=O)NC1CCCCNC(=O)C(CO)NC(=O)C(CCCN(O)C=O)NC1=O (stereo partly shown) [pyoverdine] (Suc-[X1][ξS][ξK]G[ξOrn(N(OH)CHO)][ξK][ξOrn(N(OH)CHO)][ξS]; lactam 6-C)	increased growth	increased growth		
CC(=O)N(O)CCCCCNC(=O)CCC(=O)N(O)CCCCCNC(=O)CCC(=O)N(O)CCCCCN [ferrioxamine B]			0.178 µM and 0.17 µM	660 µM and 600 µM
